ChEMBL document CHEMBL3885881, “DrugMatrix”

Species on record: Rattus norvegicus
Assay: DrugMatrix - Regimen: Daily Repeat
Assay type: toxicity, organism-based, Sprague-Dawley
Set-up: regimen Daily Repeat, gender Male, age 6-8 weeks
Settings: in vivo, po, route oral GAVAGE, vehicle 100 % WATER; for ABSOLUTE BASOPHIL / ABSOLUTE EOSINOPHIL / ABSOLUTE LYMPHOCYTE / ABSOLUTE MONOCYTE / ABSOLUTE SEGMENTED NEUTROPHIL / BASOPHIL / EOSINOPHIL / ERYTHROCYTE COUNT / HEMATOCRIT / HEMOGLOBIN / LEUKOCYTE COUNT / LYMPHOCYTE / MEAN CORPUSCULAR HEMOGLOBIN / MEAN CORPUSCULAR HEMOGLOBIN CONCENTRATION / MEAN CORPUSCULAR VOLUME / MONOCYTE / NEUTROPHIL / NUCLEATED RED BLOOD CELLS / PLATELET COUNT: tissue Blood; for ALANINE AMINOTRANSFERASE / ALBUMIN / ALKALINE PHOSPHATASE / ASPARTATE AMINOTRANSFERASE / BLOOD UREA NITROGEN / CARBON DIOXIDE / CHLORIDE / CHOLESTEROL / CREATINE PHOSPHOKINASE / CREATININE / GLUCOSE / LACTATE DEHYDROGENASE / LIPASE / PHOSPHORUS / POTASSIUM / SODIUM / TOTAL BILIRUBIN / TOTAL PROTEIN / URIC ACID: tissue Plasma
[1] = 0 mg/kg, 72 h, dose level Control, time 3 day
[2] = 0 mg/kg, 120 h, dose level Control, time 5 day
[3] = 900 mg/kg, 72 h, dose level Low, time 3 day

SMILES: Clc1ccc(C(c2ccccc2Cl)C(Cl)Cl)cc1 (centres undefined) [MITOTANE]
- ABSOLUTE BASOPHIL [1]: 0 CELLS/uL
- ABSOLUTE EOSINOPHIL [1]: 58.83 CELLS/uL
- ABSOLUTE LYMPHOCYTE [1]: 11823.5 CELLS/uL
- ABSOLUTE MONOCYTE [1]: 169 CELLS/uL
- ABSOLUTE SEGMENTED NEUTROPHIL [1]: 815.33 CELLS/uL
- BASOPHIL [1]: 0%
- EOSINOPHIL [1]: 0.5%
- ERYTHROCYTE COUNT [1]: 5.52 x10E6/uL
- HEMATOCRIT [1]: 35.77%
- HEMOGLOBIN [1]: 14.28 G/DL
- LEUKOCYTE COUNT [1]: 12.87 x10E3/uL
- LYMPHOCYTE [1]: 91.67%
- MEAN CORPUSCULAR HEMOGLOBIN [1]: 25.92 pg
- MEAN CORPUSCULAR HEMOGLOBIN CONCENTRATION [1]: 39.95 G/DL
- MEAN CORPUSCULAR VOLUME [1]: 64.85 fL
- MONOCYTE [1]: 1.33%
- NEUTROPHIL [1]: 6.5%
- NUCLEATED RED BLOOD CELLS [1]: 0 /100WBC
- PLATELET COUNT [1]: 1246.17 x10E3/uL
- ALANINE AMINOTRANSFERASE [1]: 66 u/L
- ALBUMIN [1]: 4.25 G/DL
- ALKALINE PHOSPHATASE [1]: 416 u/L
- ASPARTATE AMINOTRANSFERASE [1]: 106.17 u/L
- BLOOD UREA NITROGEN [1]: 12.67 mg/dL
- CARBON DIOXIDE [1]: 31.83 mmol/L
- CHLORIDE [1]: 102.5 MEQ/L
- CHOLESTEROL [1]: 69 mg/dL
- CREATINE PHOSPHOKINASE [1]: 601.83 u/L
- CREATININE [1]: 0.18 mg/dL
- GLUCOSE [1]: 154.5 mg/dL
- LACTATE DEHYDROGENASE [1]: 301.83 u/L
- LIPASE [1]: 11.17 u/L
- PHOSPHORUS [1]: 12.08 mg/dL
- POTASSIUM [1]: 6.12 MEQ/L
- SODIUM [1]: 145.2 MEQ/L
- TOTAL BILIRUBIN [1]: 0.17 mg/dL
- TOTAL PROTEIN [1]: 6.1 G/DL
- URIC ACID [1]: 1.57 mg/dL
- ABSOLUTE BASOPHIL [2]: 0 CELLS/uL
- ABSOLUTE EOSINOPHIL [2]: 19.33 CELLS/uL
- ABSOLUTE LYMPHOCYTE [2]: 12577.83 CELLS/uL
- ABSOLUTE MONOCYTE [2]: 106.33 CELLS/uL
- ABSOLUTE SEGMENTED NEUTROPHIL [2]: 896.5 CELLS/uL
- BASOPHIL [2]: 0%
- EOSINOPHIL [2]: 0.17%
- ERYTHROCYTE COUNT [2]: 5.84 x10E6/uL
- HEMATOCRIT [2]: 36.88%
- HEMOGLOBIN [2]: 14.48 G/DL
- LEUKOCYTE COUNT [2]: 13.6 x10E3/uL
- LYMPHOCYTE [2]: 92.17%
- MEAN CORPUSCULAR HEMOGLOBIN [2]: 24.85 pg
- MEAN CORPUSCULAR HEMOGLOBIN CONCENTRATION [2]: 39.3 G/DL
- MEAN CORPUSCULAR VOLUME [2]: 63.23 fL
- MONOCYTE [2]: 0.83%
- NEUTROPHIL [2]: 6.83%
- NUCLEATED RED BLOOD CELLS [2]: 0 /100WBC
- PLATELET COUNT [2]: 1223.5 x10E3/uL
- ALANINE AMINOTRANSFERASE [2]: 55.33 u/L
- ALBUMIN [2]: 4.08 G/DL
- ALKALINE PHOSPHATASE [2]: 355.5 u/L
- ASPARTATE AMINOTRANSFERASE [2]: 87.67 u/L
- BLOOD UREA NITROGEN [2]: 15.33 mg/dL
- CARBON DIOXIDE [2]: 33.83 mmol/L
- CHLORIDE [2]: 99.67 MEQ/L
- CHOLESTEROL [2]: 72.17 mg/dL
- CREATINE PHOSPHOKINASE [2]: 268.33 u/L
- CREATININE [2]: 0.15 mg/dL
- GLUCOSE [2]: 152.5 mg/dL
- LACTATE DEHYDROGENASE [2]: 212.67 u/L
- LIPASE [2]: 10.83 u/L
- PHOSPHORUS [2]: 11.65 mg/dL
- POTASSIUM [2]: 6.73 MEQ/L
- SODIUM [2]: 142.43 MEQ/L
- TOTAL BILIRUBIN [2]: 0.23 mg/dL
- TOTAL PROTEIN [2]: 6.07 G/DL
- URIC ACID [2]: 1.7 mg/dL
- ABSOLUTE BASOPHIL [3]: 0 CELLS/uL
- ABSOLUTE EOSINOPHIL [3]: 0 CELLS/uL
- ABSOLUTE LYMPHOCYTE [3]: 16524 CELLS/uL
- ABSOLUTE MONOCYTE [3]: 175 CELLS/uL
- ABSOLUTE SEGMENTED NEUTROPHIL [3]: 1001 CELLS/uL
- BASOPHIL [3]: 0%
- EOSINOPHIL [3]: 0%
- ERYTHROCYTE COUNT [3]: 5.49 x10E6/uL
- HEMATOCRIT [3]: 34.53%
- HEMOGLOBIN [3]: 13.73 G/DL
- LEUKOCYTE COUNT [3]: 17.7 x10E3/uL
- LYMPHOCYTE [3]: 93.33%
- MEAN CORPUSCULAR HEMOGLOBIN [3]: 25.03 pg
- MEAN CORPUSCULAR HEMOGLOBIN CONCENTRATION [3]: 39.8 G/DL
- MEAN CORPUSCULAR VOLUME [3]: 62.9 fL
- MONOCYTE [3]: 1%
- NEUTROPHIL [3]: 5.67%
- NUCLEATED RED BLOOD CELLS [3]: 0 /100WBC
- PLATELET COUNT [3]: 1289.67 x10E3/uL
- ALANINE AMINOTRANSFERASE [3]: 54 u/L
- ALBUMIN [3]: 4.23 G/DL
- ALKALINE PHOSPHATASE [3]: 331.33 u/L
- ASPARTATE AMINOTRANSFERASE [3]: 74.67 u/L
- BLOOD UREA NITROGEN [3]: 13 mg/dL
- CARBON DIOXIDE [3]: 33.67 mmol/L
- CHLORIDE [3]: 101.67 MEQ/L
- CHOLESTEROL [3]: 70.33 mg/dL
- CREATINE PHOSPHOKINASE [3]: 271 u/L
- CREATININE [3]: 0.45 mg/dL
- GLUCOSE [3]: 144.67 mg/dL
- LACTATE DEHYDROGENASE [3]: 135 u/L
- LIPASE [3]: 12.67 u/L
- PHOSPHORUS [3]: 12.8 mg/dL
- POTASSIUM [3]: 6.89 MEQ/L
- SODIUM [3]: 145.93 MEQ/L
- TOTAL BILIRUBIN [3]: 0.1 mg/dL
- TOTAL PROTEIN [3]: 6.03 G/DL
- URIC ACID [3]: 1.6 mg/dL
